“And” between values parts separate entries of the source, which are not always exact repeats. Identical values can stand only once.
Key:
human TLR2 = molecular target: T1, human TLR2 (Homo sapiens, UniProt O60603); test: HEK-Blue hTLR2 NF-κB/AP-1-inducible SEAP reporter cell assay; format: cell-based; details: Figure 3; 10 µg/mL to 10 pg/ml, 24 hours, SEAP read as OD at 655 nm
T1 construct: host or cells: HEK293 (ATCC, CRL-1573), HEK-Blue hTLR2
Excerpt: Assays for detecting TLR7, TLR8 or TLR2 activity are known in the art and include for example cell-based assays using respectively TLR7, TLR8 or TLR2 reporter cell lines (InvivoGen). The reporter cell lines are engineered HEK293 cells, a human embryonic kidney cell line (ATCC, CRL-1573) that stably express either murine TLR7 (HEK-Blue™ mTLR7) or human TLR7 (HEK-Blue™ hTLR7), human TLR8 (HEK-Blue™ hTLR8) or human TLR2 (HEK- Blue™ hTLR2) with an NF-κB-inducible secreted embryonic alkaline phosphatase (SEAP) as the reporter gene.
(§1) Cell-based assays were carried out using TLR7 and TLR2 reporter cell lines (InvivoGen). The reporter cell lines are engineered HEK293 cells, a human embryonic kidney cell line (ATCC, CRL-1573) that stably express either murine TLR7 (HEK-Blue™ mTLR7) or human TLR7 (HEK-Blue™ hTLR7) or human TLR2 (HEK- Blue™ hTLR2) with an NF-κB-inducible secreted embryonic alkaline phosphatase (SEAP) as the reporter gene. The SEAP reporter gene is under the control of the NF-κB and AP-1-inducible promoter, which, upon treatment with a corresponding TLR ligand and activation of NF-κB and AP-1, induces the production of SEAP. Detection of SEAP is measured following culturing cells in HEK-Blue™ Detection media (InvivoGen). HEK-Blue™ Detection contains a SEAP substrate that when hydrolysed by SEAP produces a colorimetric change allowing for detection of SEAP as the protein is secreted. […] These assays were carried out using RAW-Blue™ Cells (InvivoGen), derived from RAW 264.7 mouse leukemic monocyte macrophage cell line (ATCC, CRL 2278) stably overexpressing a NF-κB /AP-1 inducible SEAP reporter constructs.
(§2) To perform the assay, cells were seeded on 96 well microliter plates at 50,000 or 100,000 cells per well for HEK-Blue™ Cells and RAW-Blue™ Cells respectively, and cultured at 37 °C in the presence of the conjugated compounds The TLR7-TLR2 polyamine molecules were prepared as follows: First, stock solutions of the conjugated compounds of the invention were prepared in ethanol or water to a concentration of 10 mg/ml.
(§3) The working dilutions of the conjugated TLR7-TLR2 polyamine agonists made up in water or PBS were directly added to the reporter cell lines at a final concentration ranging from 10 µg/mL to 10 pg/ml and incubated at 37 °C for 24 hours. After 24 hours of incubation, the effect on reporter gene activity was determined by reading the OD at 655 nm using iMark™ Microplate Reader (BIO-RAD).

[1] = test system: endogenous TLR2 and TLR7 in RAW-Blue™ Cells; test: RAW-Blue Cells NF-κB/AP-1 SEAP reporter assay (endogenous receptors); format: cell-based, mouse; details: Figure 4; 10 µg/mL to 10 pg/ml, 24 hours, SEAP read as OD at 655 nm
Method: as §1, §2, §3

[2] = Determination of nanoparticle (lipoplex) size by dynamic light scattering; format: physicochemical; details: ratio 3:24 (w:w); for Conformity (C)/ Non-conformity (NC) / Mean Diameter (nm): complexes with pDNA; for Mean Diameter (nm): dynamic light scattering at 25°C; for Mean Diameter (nm) / PDI: triplicate measurements; for PDI: polydispersity index of complexes with pDNA, 25°C
Method: • 1. Preparative HPLC Method: Unless otherwise indicated, the compounds described herein were purified by RP-MPLC ARMEN® Spot Flash Liquid Chromatography (ARMEN Instrument, Saint Ave, France) on a preparative column (SVF D26) packed with 25-40 µm C18 resin (Merck chimie SAS), by applying a linear gradient of 0-10% MeCN in NH4OAc (10 mM) solution (pH = 9) over 60 min at a 15 mL/min flow rate. The purification was monitored at 254 nm. Suitable fractions were pooled and lyophilised. • 2. Proton NMR Spectra: Unless otherwise indicated, all ^1H NMR spectra were run on a Bruker series 300 MHz instrument. Where so characterized, all observed protons are reported as parts-per-million (ppm) downfield from tetramethylsilane (TMS) or other internal reference in the appropriate solvent indicated. NMR spectra were recorded on a Brucker 300 spectrometer. For ^1H (300 MHz) spectra δ values were referenced to CDCI3-d1 (7.26 ppm), DMSO- d6 (2.50 ppm), D2O-d2 (4.79 ppm) or MeOD-d4 (3.31 ppm). The peak patterns are indicated as follows: s: singlet, sl: large singlet, d: doublet, t: triplet, q: quartet, m: multiplet. • 3. Mass Spectra (MS): Analyses were run on an Agilent Model 6130 quadrupole MS. Unless otherwise indicated, all mass spectral data for starting materials, intermediates and/or exemplary compounds are reported as mass/charge (m/z), having an (M+H)^+ molecular ion. The molecular ion reported was obtained by electrospray detection method (commonly referred to as an ESI MS). Compounds having an isotopic atom, such as bromine and the like, are generally reported according to the detected isotopic pattern, as appreciated by those skilled in the art. • 4. Particle size: Particle size was determined using a Malvern Nanosizer (Malvern, Worcestershire, UK) and Malvern ZETASIZER.RTM. (Malvern, Worcestershire, UK). • 5. Naming Convention The compounds disclosed and described herein have been named using the naming convention provided with Chem-Draw Ultra 11.0 software, available in Chem. Office. In some instances, compounds were named with the term "spermine" inserted where appropriate. For example, where the spermine is substituted with Boc, "N1,N5,N10-TriBoc-spermine" is added to the Chem-Draw nomenclature in the appropriate place. Chem-Draw utilizes the ISIS Draw software compound naming convention, as appreciated by those skilled in the art.
For pDNA:TLR7-TLR2 polyamine molecules complexes, a ratio pDNA:TLR7-TLR2 polyamine molecules of 3:24 (w:w) was prepared in serum-free culture medium or in 5% glucose. The TLR7-TLR2 conjugated compound of interest was prediluted in serum-free culture medium or in 5% glucose and incubated for 5 minutes at room temperature, prior to the addition of an endotoxin-free, salt-free preparation of pDNA. In these experiments, the pBsr2pCpGLacZh plasmid was used in the pDNA:TLR7-TLR2 polyamine molecule complexes. The pDNA:TLR7-TLR2 polyamine molecule mixtures were incubated at room temperature for 30 minutes to allow the formation of the complex. The control used in these experiments was the cationic lipid transfection agent LyoVec™ (InvivoGen) prepared in a similar manner.
In order to confirm that TLR7-TLR2 polyamine molecules complex DNA, lipoplex size was determined. The physical characterization of complex was achieved by dynamic light scattering using the analytical equipment for laser diffraction Zetasizer Nano-ZS (Malvern). pDNA:TLR7-TLR2 polyamine molecule complexes were prepared as described above. Subsequently, 50µl of pDNA: TLR7-TLR2 polyamine molecule complexes were placed into a disposable sizing cuvette and measurements were made under conditions defined according to manufacturer's instructions. The measurements were made at 25°C in triplicate and a size distribution report was obtained. […]

T1 sequence (O60603 21-784): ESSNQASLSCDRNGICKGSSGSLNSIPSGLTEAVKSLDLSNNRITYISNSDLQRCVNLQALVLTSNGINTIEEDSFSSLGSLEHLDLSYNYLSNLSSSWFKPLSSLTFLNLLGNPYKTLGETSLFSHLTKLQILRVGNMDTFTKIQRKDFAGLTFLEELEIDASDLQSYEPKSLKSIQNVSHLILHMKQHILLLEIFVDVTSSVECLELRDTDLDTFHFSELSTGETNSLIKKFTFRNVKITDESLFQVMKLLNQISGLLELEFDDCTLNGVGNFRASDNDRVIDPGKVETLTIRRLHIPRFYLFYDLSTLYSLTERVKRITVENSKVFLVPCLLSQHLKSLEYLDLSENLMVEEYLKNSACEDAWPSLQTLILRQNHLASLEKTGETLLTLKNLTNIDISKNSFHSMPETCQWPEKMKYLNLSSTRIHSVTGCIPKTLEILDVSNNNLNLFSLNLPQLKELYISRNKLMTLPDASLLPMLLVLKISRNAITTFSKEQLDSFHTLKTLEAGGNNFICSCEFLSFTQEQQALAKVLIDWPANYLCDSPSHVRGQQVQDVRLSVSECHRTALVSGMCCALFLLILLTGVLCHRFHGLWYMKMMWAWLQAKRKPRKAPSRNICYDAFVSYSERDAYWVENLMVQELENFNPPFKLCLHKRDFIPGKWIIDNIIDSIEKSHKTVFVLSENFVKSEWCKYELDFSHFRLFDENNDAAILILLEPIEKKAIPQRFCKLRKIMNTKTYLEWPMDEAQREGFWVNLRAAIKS

CCCCCCCCCCCCCCCC(=O)OCC(CSC[C@H](N)C(=O)N[C@@H](CCCCNC(=O)CNC(=O)c1ccc(Cn2c(O)nc3c(N)nc(NCCCC)nc32)cc1)C(=O)NCCCNCCCCNCCCN)OC(=O)CCCCCCCCCCCCCCC (stereo partly drawn) [CL475, (6R,9S)-6,23-diamino-9-(4-(2-(4-((6-amino-2-(butylamino)-8-hydroxy-9H-purin-9-yl)methyl)benzamido)acetamido)butyl)-7,10-dioxo-4-thia-8,11,15,20-tetraazatrico sane-1,2-diyl dipalmitate]
ability to activate hTLR2 (human TLR2): activate hTLR2 | ability to activate endogenous TLR2 and TLR7 in RAW-Blue™ Cells [1]: activate endogenous TLR2 and TLR7 | Conformity (C)/ Non-conformity (NC) [2]: C (ranged between 140 and 200 nm in diameter were considered to show conformity) | Mean Diameter (nm) [2]: 145,9 nm and 155,8 nm and 153,5 nm | PDI [2]: 0,193 and 0,176 and 0,158

CCCCCCCCCCCCCCCC(=O)OCC(CSC[C@H](N)C(=O)N[C@@H](COC(=O)c1ccc(Cn2c(O)nc3c(N)nc(NCCCC)nc32)cc1)C(=O)NCCCNCCCCNCCCN)OC(=O)CCCCCCCCCCCCCCC (stereo partly drawn) [CL514, (6R,9S)-6,23-diamino-9-((4-((6-amino-2-(butylamino)-8-hydroxy-9H-purin-9-yl)methyl)benzoyloxy)methyl)-7,10-dioxo-4-thia-8,11,15,20-tetraazatricosane-1,2-diyl dipalmitate]
ability to activate hTLR2 (human TLR2): activate hTLR2 | ability to activate endogenous TLR2 and TLR7 in RAW-Blue™ Cells [1]: activate endogenous TLR2 and TLR7 | Conformity (C)/ Non-conformity (NC) [2]: C (ranged between 140 and 200 nm in diameter were considered to show conformity) | Mean Diameter (nm) [2]: 249,1 nm and 309,6 nm and 258,3 nm | PDI [2]: 0,303 and 0,354 and 0,372

CCCCCCCCCCCCCCCC(=O)OCC(CSC[C@H](N)C(=O)N[C@@H](CCC(=O)NCCCNCCCCNCCCN)C(=O)Nc1ccc(Cn2c(O)nc3c(N)nc(NCCCC)nc32)cc1)OC(=O)CCCCCCCCCCCCCCC (stereo partly drawn) [CL527, (6R,9S)-6,25-diamino-9-(4-((6-amino-2-(butylamino)-8-hydroxy-9H-purin-9-yl)methyl)phenylcarbamoyl)-7,12-dioxo-4-thia-8,13,17,22-tetraazapentacosane-1,2-diyl dipalmitate]
ability to activate hTLR2 (human TLR2): activate hTLR2 | ability to activate endogenous TLR2 and TLR7 in RAW-Blue™ Cells [1]: activate endogenous TLR2 and TLR7 | Conformity (C)/ Non-conformity (NC) [2]: C (ranged between 140 and 200 nm in diameter were considered to show conformity) | Mean Diameter (nm) [2]: 175,1 nm and 156,9 nm and 168,3 nm | PDI [2]: 0,253 and 0,239 and 0,258

CCCCCCCCCCCCCCCC(=O)OCC(CSC[C@H](N)C(=O)NCCCC[C@H](NC(=O)CNC(=O)c1ccc(Cn2c(O)nc3c(N)nc(NCCCC)nc32)cc1)C(=O)NCCCNCCCCNCCCN)OC(=O)CCCCCCCCCCCCCCC (stereo partly drawn) [CL487, (6R,13S)-6,27-diamino-13-(2-(4-((6-amino-2-(butylamino)-8-hydroxy-9H-purin-9-yl)methyl)benzamido)acetamido)-7,14-dioxo-4-thia-8,15,19,24-tetraazaheptacosane-1,2-diyl dipalmitate]
ability to activate hTLR2 (human TLR2): activate hTLR2 | ability to activate endogenous TLR2 and TLR7 in RAW-Blue™ Cells [1]: activate endogenous TLR2 and TLR7 | Conformity (C)/ Non-conformity (NC) [2]: C (ranged between 140 and 200 nm in diameter were considered to show conformity) | Mean Diameter (nm) [2]: 148,1 nm and 165,6 nm and 160,0 nm | PDI [2]: 0,23 and 0,255 and 0,241

CCCCCCCCCCCCCCCC(=O)OCC(CSC[C@H](N)C(=O)NCCCNCCCCNCCCNC(=O)CNC(=O)c1ccc(Cn2c(O)nc3c(N)nc(NCCCC)nc32)cc1)OC(=O)CCCCCCCCCCCCCCC (stereo partly drawn) [CL553, (20R)-20-amino-1-(4-((6-amino-2-(butylamino)-8-hydroxy-9H-purin-9-yl)methyl)phenyl)-1,4,19-trioxo-22-thia-2,5,9,14,18-pentaazapentacosane-24,25-diyl dipalmitate]
ability to activate hTLR2 (human TLR2): activate hTLR2 | ability to activate endogenous TLR2 and TLR7 in RAW-Blue™ Cells [1]: activate endogenous TLR2 and TLR7 | Conformity (C)/ Non-conformity (NC) [2]: C (ranged between 140 and 200 nm in diameter were considered to show conformity) | Mean Diameter (nm) [2]: 170.0 nm and 190.0 nm and 180,2 nm | PDI [2]: 0,226 and 0,230 and 0,237

CCCCCCCCCCCCCCCC(=O)OCC(CSC[C@H](N)C(=O)NCCCC[C@H](NC(=O)c1ccc(Cn2c(O)nc3c(N)nc(NCCCC)nc32)cc1)C(=O)NCCCNCCCCNCCCN)OC(=O)CCCCCCCCCCCCCCC (stereo partly drawn) [CL486, (6R,13S)-6,27-diamino-13-(4-((6-amino-2-(butylamino)-8-hydroxy-9H-purin-9-yl)methyl)benzamido)-7,14-dioxo-4-thia-8,15,19,24-tetraazaheptacosane-1,2-diyl dipalmitate]
ability to activate hTLR2 (human TLR2): activate hTLR2 | ability to activate endogenous TLR2 and TLR7 in RAW-Blue™ Cells [1]: activate endogenous TLR2 and TLR7 | Conformity (C)/ Non-conformity (NC) [2]: C (ranged between 140 and 200 nm in diameter were considered to show conformity) | Mean Diameter (nm) [2]: 209,2 nm and 179,7 nm and 202,0 nm | PDI [2]: 0,236 and 0,232 and 0,234
